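Dose response: 5 concentrations. Exposure: 48 h. Format: 96-well plates. Endpoint: linear interpolation; highest concentration if not reached. GI50 is the concentration that inhibits growth by half. At the TGI there is no net growth.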
Columns and labels:
Assay in all cases: NCI-60 cell line screen, 48 h
EKVX NSCLC = tested on: EKVX NSCLC
SR leukemia = tested on: SR leukemia
UO-31 renal = tested on: UO-31 renal
HOP-92 NSCLC = tested on: HOP-92 NSCLC
SW-620 colon = tested on: SW-620 colon
NCI-H23 lung = tested on: NCI-H23 lung
LOX IMVI melanoma = tested on: LOX IMVI melanoma
NCI/ADR-RES ovarian = tested on: NCI/ADR-RES ovarian
DU-145 prostate = tested on: DU-145 prostate
UACC-62 melanoma = tested on: UACC-62 melanoma
UACC-257 melanoma = tested on: UACC-257 melanoma
TK-10 renal = tested on: TK-10 renal
NCI-H226 lung = tested on: NCI-H226 lung
OVCAR-3 ovarian = tested on: OVCAR-3 ovarian
CCRF-CEM leukemia = tested on: CCRF-CEM leukemia
KM12 colon = tested on: KM12 colon
M14 melanoma = tested on: M14 melanoma
PC-3 prostate = tested on: PC-3 prostate
K-562 leukemia = tested on: K-562 leukemia
SN12C renal = tested on: SN12C renal
HCC-2998 colon = tested on: HCC-2998 colon
U251 CNS = tested on: U251 CNS
786-0 renal = tested on: 786-0 renal
RPMI-8226 leukemia = tested on: RPMI-8226 leukemia
HCT-15 colon = tested on: HCT-15 colon
T-47D breast = tested on: T-47D breast
SK-MEL-28 melanoma = tested on: SK-MEL-28 melanoma
SNB-75 CNS = tested on: SNB-75 CNS
COLO 205 colon = tested on: COLO 205 colon
MDA-MB-435 = tested on: MDA-MB-435
HL-60(TB) leukemia = tested on: HL-60(TB) leukemia
MDA-MB-231 breast = tested on: MDA-MB-231 breast
SF-268 CNS = tested on: SF-268 CNS
MCF7 breast = tested on: MCF7 breast
MOLT-4 leukemia = tested on: MOLT-4 leukemia
HT29 colon = tested on: HT29 colon
OVCAR-4 ovarian = tested on: OVCAR-4 ovarian
CAKI-1 renal = tested on: CAKI-1 renal
BT-549 breast = tested on: BT-549 breast
RXF 393 renal = tested on: RXF 393 renal
HOP-62 NSCLC = tested on: HOP-62 NSCLC
SK-MEL-2 melanoma = tested on: SK-MEL-2 melanoma
SF-539 CNS = tested on: SF-539 CNS
OVCAR-8 ovarian = tested on: OVCAR-8 ovarian
SK-OV-3 ovarian = tested on: SK-OV-3 ovarian
ACHN renal = tested on: ACHN renal
SF-295 CNS = tested on: SF-295 CNS
SK-MEL-5 melanoma = tested on: SK-MEL-5 melanoma
HS 578T breast = tested on: HS 578T breast
MALME-3M melanoma = tested on: MALME-3M melanoma
SNB-19 CNS = tested on: SNB-19 CNS
A549 NSCLC = tested on: A549 NSCLC
NCI-H522 lung = tested on: NCI-H522 lung
OVCAR-5 ovarian = tested on: OVCAR-5 ovarian
A498 renal = tested on: A498 renal
IGROV1 ovarian = tested on: IGROV1 ovarian
HCT-116 colon = tested on: HCT-116 colon
NCI-H460 lung = tested on: NCI-H460 lung

## CC(=C(c1ccc(OCCN2CCCC2)cc1)c1ccc(OCCN2CCCC2)cc1)c1ccc(Cl)cc1
EKVX NSCLC
  GI50: 2270 nM
  TGI: 4650 nM
SR leukemia
  GI50: 745 nM
  TGI: 16700 nM
UO-31 renal
  GI50: 2240 nM
  TGI: 4460 nM
HOP-92 NSCLC
  GI50: 1490 nM
  TGI: 3920 nM
SW-620 colon
  GI50: 2160 nM
  TGI: 4540 nM
NCI-H23 lung
  GI50: 2690 nM
  TGI: 5200 nM
LOX IMVI melanoma
  GI50: 516 nM
  TGI: 2620 nM
NCI/ADR-RES ovarian
  GI50: 2810 nM
  TGI: 5720 nM
DU-145 prostate
  GI50: 2600 nM
  TGI: 5140 nM
UACC-62 melanoma
  GI50: 2850 nM
  TGI: 5520 nM
UACC-257 melanoma
  GI50: 2970 nM
  TGI: 5850 nM
TK-10 renal
  GI50: 2580 nM
  TGI: 5210 nM
NCI-H226 lung
  GI50: 3040 nM
  TGI: 6180 nM
OVCAR-3 ovarian
  GI50: 2640 nM
  TGI: 5300 nM
CCRF-CEM leukemia
  GI50: 1400 nM
  TGI: 4720 nM
KM12 colon
  GI50: 2660 nM
  TGI: 5630 nM
M14 melanoma
  GI50: 2130 nM
  TGI: 4590 nM
PC-3 prostate
  GI50: 2290 nM
  TGI: 4790 nM
K-562 leukemia
  GI50: 498 nM
  TGI: 1750 nM
SN12C renal
  GI50: 2500 nM
  TGI: 4980 nM
HCC-2998 colon
  GI50: 2700 nM
  TGI: 5320 nM
U251 CNS
  GI50: 2200 nM
  TGI: 4880 nM
786-0 renal
  GI50: 2110 nM
  TGI: 4520 nM
RPMI-8226 leukemia
  GI50: 2570 nM
  TGI: 6740 nM
HCT-15 colon
  GI50: 655 nM
  TGI: 2530 nM
T-47D breast
  GI50: 1940 nM
  TGI: 5020 nM
SK-MEL-28 melanoma
  GI50: 2640 nM
  TGI: 5100 nM
SNB-75 CNS
  GI50: 6850 nM
  TGI: 16700 nM
COLO 205 colon
  GI50: 2730 nM
  TGI: 6140 nM
MDA-MB-435
  GI50: 2620 nM
  TGI: 5030 nM
HL-60(TB) leukemia
  GI50: 3010 nM
  TGI: 6340 nM
MDA-MB-231 breast
  GI50: 2370 nM
  TGI: 4950 nM
SF-268 CNS
  GI50: 2700 nM
  TGI: 5460 nM
MCF7 breast
  GI50: 409 nM
  TGI: 2730 nM
MOLT-4 leukemia
  GI50: 1380 nM
  TGI: 4390 nM
HT29 colon
  GI50: 660 nM
  TGI: 2520 nM
OVCAR-4 ovarian
  GI50: 2650 nM
  TGI: 5390 nM
CAKI-1 renal
  GI50: 2500 nM
  TGI: 4850 nM
BT-549 breast
  GI50: 2630 nM
  TGI: 5120 nM
RXF 393 renal
  GI50: 2010 nM
  TGI: 4200 nM
HOP-62 NSCLC
  GI50: 2930 nM
  TGI: 5970 nM
SK-MEL-2 melanoma
  GI50: 3100 nM
  TGI: 6220 nM
SF-539 CNS
  GI50: 2340 nM
  TGI: 4670 nM
OVCAR-8 ovarian
  GI50: 3250 nM
  TGI: 7160 nM
SK-OV-3 ovarian
  GI50: 2900 nM
  TGI: 5490 nM
ACHN renal
  GI50: 2530 nM
  TGI: 4780 nM
SF-295 CNS
  GI50: 2690 nM
  TGI: 5140 nM
SK-MEL-5 melanoma
  GI50: 2740 nM
  TGI: 5210 nM
HS 578T breast
  GI50: 2680 nM
  TGI: 6590 nM
MALME-3M melanoma
  GI50: 2630 nM
  TGI: 5180 nM
SNB-19 CNS
  GI50: 2790 nM
  TGI: 5300 nM
A549 NSCLC
  GI50: 2740 nM
  TGI: 5740 nM
NCI-H522 lung
  GI50: 2960 nM
  TGI: 5990 nM
OVCAR-5 ovarian
  GI50: 2560 nM
  TGI: 4900 nM
A498 renal
  GI50: 2450 nM
  TGI: 4850 nM
IGROV1 ovarian
  GI50: 2560 nM
  TGI: 5110 nM
HCT-116 colon
  GI50: 1150 nM
  TGI: 3580 nM
NCI-H460 lung
  GI50: 2960 nM
  TGI: 5580 nM
